From PMC2704987 (Pharmacotherapy, 2009)
Like-named read-outs stand apart in the source and are kept apart here.

Tests used:
[1] = orally administered ganciclovir; cited from earlier work
[2] = child with glioblastoma, cited from earlier work
[3] = cited from earlier work
[4] = cited from earlier work; remark: listed apart in the source
[5] = cited from earlier work; remark: listed apart in the source
[6] = children, 120 mg/m^2/day, range in parentheses; cited from earlier work
[7] = format: in vivo, human; details: for AUC / Cmax: human, plasma, po, 120 mg/m^2/day, oral erlotinib 120 mg/m^2/day (150 mg)
[8] = adults, 150 mg/day; cited from earlier work
[9] = adults, 150 mg/day; cited from earlier work; remark: listed apart in the source
[10] = oral azithromycin, 12 CF patients; cited from earlier work
[11] = adult patients with advanced malignant disease
[12] = cystic fibrosis patient, oral erlotinib 150 mg daily

Compound: Nc1nc(O)c2ncn(COC(CO)CO)c2n1 [ganciclovir]
- pharmacokinetic parameters in post-lung transplant patients with CF [1]: predictable

Compound: C#Cc1cccc(Nc2ncnc3cc(OCCOC)c(OCCOC)cc23)c1 [erlotinib]
- Day 1 AUCERL ([2]; 70 mg/m^2/day): 19400 ng·h/mL
- Day 8 AUCERL ([2]; 70 mg/m^2/day): 32600 ng·h/mL
- ka ([2]; 70 mg/m^2/day): 0.59 h^−
- penetration of erlotinib into the CSF ([2]; oral erlotinib): modest
- bound to plasma proteins [3]: 95%
- solubility in water and methanol [4]: poor
- half-life [5, 11]: 10 to 36 h
- time to maximum concentration (Cmax) after dose administration [5, 11]: 2 to 4 h
- bioavailability after oral administration with food ([5]; adults, administration with food): ≥ 100%
- elimination in feces ([5]; adults, biliary excretion): 63%
- bioavailability after oral administration ([5]; adults, without food): approximately 60%
- elimination in urine ([5]; adults): 13%
- Day 1 AUCERL [6]: 22.6 (18.2–27) mcg*h/mL
- Day 1 Cmax [6]: 1260 (490–2020) ng/mL
- Day 8 AUCERL [6]: 29.5 (12–47) mcg*h/mL
- ka (absorption rate constant) ([7]; cystic fibrosis patient, oral erlotinib 120 mg/m^2/day): 1.51 h^−
- VdERL (apparent volume of distribution of erlotinib) ([7]; cystic fibrosis patient, oral erlotinib 120 mg/m^2/day, with pancrelipase): 60.4 L/m^2
- Apparent clearance of erlotinib [7, 12]: 4.9 L/h/m^2
- Apparent volume of distribution of erlotinib [7, 12]: 60.4 L
- rate of erlotinib absorption (ka) [7, 12]: 1.51 h⁻¹
- absorption of orally administered erlotinib in a cystic fibrosis patient ([7]; given concomitantly with pancreatic enzymes replacement therapy): not affected
- AUC ([7]; Day 1 AUCERL, cystic fibrosis patient, day 1, plasma): 18800 ng·h/mL
- Cmax ([7]; Day 1 Cmax, cystic fibrosis patient, day 1, plasma): 1440 ng/mL
- AUC ([7]; Day 8 AUCERL, cystic fibrosis patient, day 8 (steady state)): 25700 ng·h/mL
- Cmax ([7]; Day 8 Cmax, cystic fibrosis patient, day 8, plasma): 1460 ng/mL
- Day 1 AUCERL [8]: 16540 ± 11020 ng·h/mL
- Day 1 AUCERL [9]: 19400 ± 10000 ng·h/mL

Compound: CC[C@H]1OC(=O)[C@H](C)[C@@H](O[C@H]2C[C@@](C)(OC)[C@@H](O)[C@H](C)O2)[C@H](C)[C@@H](O[C@@H]2O[C@H](C)C[C@H](N(C)C)[C@H]2O)[C@](C)(O)C[C@@H](C)CN(C)[C@H](C)[C@@H](O)[C@]1(C)O [azithromycin]
- Cmax, Tmax, and AUC values, CF patients versus healthy volunteers [10]: similar
- absorption rate constant (ka) and absolute bioavailability (F), CF patients versus healthy volunteers [10]: no statistically significant difference
